Source: patent US9056923B2, “Mimetic peptides derived from collagen type IV and their use for treating angiogenesis- and lymphagiogenesis-dependent diseases” (THE JOHNS HOPKINS UNIVERSITY, priority 2010, dated 2015)
Square brackets hold non-standard residues; d marks the D form. Ends that are not written are not given here. Peptide text beside a SMILES is read from it. Phe(4-Cl) = N[C@@H](Cc1ccc(Cl)cc1)C(=O)O; Nle = CCCC[C@H](N)C(=O)O; Abu = CC[C@H](N)C(=O)O

Legend:
Assay type in all cases: cell-based, human
[1] = test system: HUVEC; conditions: for Activity in Proliferation: Yes/No summary
Method: Several assays were used to test the peptides discussed in the Examples herein. A colorimetric based proliferation assay using WST-1 (Roche, 11644807001) proliferation reagent was carried out using HUVEC cells. 2000 cells/well were plated in 96-well plates and allowed to adhere overnight. On the following day, the media was exchanged with fully supplemented media containing peptides or equivalent DMSO vehicle for the controls. Three days later the media containing the peptides was replaced with serum-free EBM-2 media containing WST-1 reagent and the plates were incubated for four hours as per the manufacturer's recommendations. Changes in color, due to the formazan dye resulted from the cleavage of the tetrazolium salt WST-1 by the mitochondrial succinate-tetrazolium reductase, were read on a Victor V fluorescence plate reader (Perkin Elmer, MA) by measuring the absorbance at 450 nm Dose response curves of percent live cells (in comparison to untreated cells but incubated in complete media with 0.2% DMSO) were created. Assays were performed in at least two independent replicates and each replicate was performed using three experimental triplicates.

[2] = test system: HUVEC; assay: HUVEC migration assay (RT-CIM); conditions: for Activity in Migration: Yes/No summary, active = inhibitory potential greater than 30%; for Migration Inhibition (50 uM): 50 uM peptide
Method: The inhibitory potential of the peptides was measured using a real time migration assay system based on electrical impedance (RT-CIM, ACEA Biosciences, CA). CIM 16 well plates (Roche, 05665817001) are composed of a top and bottom chamber separated by a microporous (8 μm) polycarbonate membrane. The membrane was coated with fibronectin (20 μg/mL), and 45,000 cells/well in serum free media with or without peptides were added to the top compartment. Media with chemoattractant (i.e., fully supplemented EBM-2) was added to the bottom compartment of the chamber and the plate was incubated at 37° C. for 20 hours. The sensors integrated on the bottom side of the membrane monitor and continuously record changes in impedance as the cells move through the membrane. The RT-CIM technology allows for easy quantification of cell migration by monitoring the cell index derived from the measured impedances. Assays were performed in at least two independent replicates and each replicate was performed using two experimental duplicates.

[3] = test system: HUVEC; conditions: HUVEC; for Activity in Adhesion: Yes/No summary, active = inhibitory potential greater than 30%; for Adhesion Inhibition (100 uM): 100 uM peptide
Method: Similar to the migration assays, the inhibition activity of the peptide in cellular adhesion was assessed using the RT-CIM technology. In this case, 25,000 cells/well were plated in 16 wells E-plates (Roche, Basel Switzerland) in the presence or absence of the peptide. The adhesion was monitored over time (3 hours) by measuring changes in the electrical impedance, which is a direct measure of the cells adhering on the electrodes. […] Assays were performed in at least two independent replicates and each replicate was performed using two experimental duplicates.

[4] = test system: HUVEC; assay: HUVEC tube formation assay on Matrigel; conditions: for Tube formation Inhibition (100 uM): 100 uM peptide; for Activity in Tube formation: Yes/No summary; for inhibition of tube formation: concentration not given; for inhibition of tube formation (FIG. 20): high dose, 100 nM
Method: The compounds also were tested for their ability to inhibit tube formation, a process critical in angiogenesis. Endothelial cells spontaneously form a network of tubes when plated on extracts of extracellular matrix. This in vitro assay combines aspects of adhesion and migration and it is routinely used in angiogenesis research (Oliveira-Ferrer et al., 2008). The ability to inhibit tube formation is a comprehensive assessment of the anti-angiogenic potential. The protocol was described by Arnaoutova et al. (2009) and it consists of plating HUVEC on top of basement membrane extract and after incubation at 37° C. the cells naturally rearrange themselves in a network of tubes. Thus, 50 μL/well of Matrigel (BD Biosciences, San Jose, Calif.) was plated in a cold 96 well plate and incubated at 37° C. for 30 min for polymerization. 15,000 cells/well were added to the top of the gel and incubated in complete media in the presence or absence of peptide for 19 hours. Images were captured using the CCD Sensicam mounted on a Nikon microscope (Eclipse T-100). Assays were performed in at least two independent replicates and each replicate was performed using three experimental replicates and one image of a randomly chosen field was acquired per well.

Molecule	Activity in Proliferation ([1]; HUVEC)	Activity in Migration [2]	Activity in Adhesion [3]	Tube formation Inhibition (100 uM) [4]	Activity in Tube formation [4]	Migration Inhibition (50 uM) [2]	Adhesion Inhibition (100 uM) [3]	other results
CC[C@H](NC(=O)[C@H](Cc1ccccc1)NC(=O)[C@H](CCSC)NC(=O)[C@H](Cc1ccccc1)NC(=O)[C@@H]1CCCN1C(=O)[C@H](CCSC)NC(=O)[C@@H](NC(=O)[C@H](CO)NC(=O)[C@H](Cc1ccccc1)NC(=O)[C@H](CCCNC(=N)N)NC(=O)[C@H](CCCNC(=N)N)NC(=O)[C@@H](N)CC(C)C)[C@@H](C)O)C(=O)N[C@@H](CC(N)=O)C(=O)N[C@H](C(=O)N[C@@H](CC(N)=O)C(=O)N[C@H](C(=O)O)C(C)C)[C@@H](C)CC [SP2006, LRRFSTMPFMFAbuNINV] (H-LRRFSTMPFMF[Abu]NINV-OH; N-terminus and C-terminus assumed)	No	No	Yes	Complete	Yes			inhibition of proliferation ([1]; HUVEC): did not inhibit proliferation; migration inhibition ([2]; concentration not given): 18%; inhibition of adhesion at 50 μM ([3]; 50 μM peptide): inhibition of adhesion; inhibition of tube formation [4]: Inhibition of tube formation; inhibition of tube formation (FIG. 20) [4]: active at inhibiting tube formation
CC[C@H](NC(=O)[C@H](Cc1ccccc1)NC(=O)[C@H](CCSC)NC(=O)[C@H](Cc1ccccc1)NC(=O)[C@@H]1CCCN1C(=O)[C@H](CCSC)NC(=O)[C@@H](NC(=O)[C@H](CO)NC(=O)[C@H](Cc1ccccc1)NC(=O)[C@H](CCCNC(=N)N)NC(=O)[C@H](CCCNC(=N)N)NC(=O)[C@@H](N)CC(C)C)[C@@H](C)O)C(N)=O [SP2007, LRRFSTMPFMFAbu] (H-LRRFSTMPFMF[Abu]-NH2; N-terminus assumed)	No	No	No	Inactive	No	Inactive	11%	Proliferation Inhibition (IC50 in uM) ([1]; HUVEC, summary tables 2-4, 6, 7): Inactive; inhibition of migration ([2]; concentration not given): absence of activity; inhibition of adhesion ([3]; concentration not given): absence of activity
CC[C@H](NC(=O)[C@H](Cc1ccccc1)NC(=O)[C@H](CCSC)NC(=O)[C@@H](N)Cc1ccccc1)C(=O)N[C@@H](CC(N)=O)C(=O)N[C@H](C(=O)N[C@@H](CC(N)=O)C(=O)N[C@@H](CC(N)=O)C(=O)N[C@H](C(=O)N[C@@H](CC)C(=O)N[C@@H](CC(N)=O)C(=O)N[C@@H](Cc1ccccc1)C(=O)O)C(C)C)[C@@H](C)CC [SP2010, FMFAbuNINNVAbuNF] (H-FMF[Abu]NINNV[Abu]NF-OH; N-terminus and C-terminus assumed)	No	No	Yes	complete inhibition of tube formation	Yes	13%	82.69%	IC50 [1]: 155 µM; inhibition of tube formation (FIG. 20) [4]: displayed activity in inhibiting tube formation
CC[C@H](NC(=O)[C@H](Cc1ccccc1)NC(=O)[C@H](CCSC)NC(=O)[C@H](C)NC(=O)[C@@H]1CCCN1C(=O)[C@H](CCSC)NC(=O)[C@@H](NC(=O)[C@H](CO)NC(=O)[C@H](Cc1ccccc1)NC(=O)[C@H](CCCNC(=N)N)NC(=O)[C@H](CCCNC(=N)N)NC(=O)[C@@H](N)CC(C)C)[C@@H](C)O)C(=O)N[C@@H](CC(N)=O)C(=O)N[C@H](C(=O)N[C@@H](CC(N)=O)C(=O)N[C@@H](CC(N)=O)C(=O)N[C@H](C(=O)N[C@@H](CC)C(=O)N[C@@H](CC(N)=O)C(=O)N[C@@H](Cc1ccccc1)C(N)=O)C(C)C)[C@@H](C)CC [SP2015, LRRFSTMPAMF(Abu)NINNV(Abu)NF] (H-LRRFSTMPAMF[Abu]NINNV[Abu]NF-NH2; N-terminus assumed)				Complete		100%	96%	inhibition of tube formation [4]: significant inhibition of tube formation
CC[C@H](NC(=O)[C@H](Cc1ccccc1)NC(=O)[C@H](C)NC(=O)[C@H](Cc1ccccc1)NC(=O)[C@@H]1CCCN1C(=O)[C@H](CCSC)NC(=O)[C@@H](NC(=O)[C@H](CO)NC(=O)[C@H](Cc1ccccc1)NC(=O)[C@H](CCCNC(=N)N)NC(=O)[C@H](CCCNC(=N)N)NC(=O)[C@@H](N)CC(C)C)[C@@H](C)O)C(=O)N[C@@H](CC(N)=O)C(=O)N[C@H](C(=O)N[C@@H](CC(N)=O)C(=O)N[C@@H](CC(N)=O)C(=O)N[C@H](C(=O)N[C@@H](CC)C(=O)N[C@@H](CC(N)=O)C(=O)N[C@@H](Cc1ccccc1)C(N)=O)C(C)C)[C@@H](C)CC [SP2016, LRRFSTMPFAF(Abu)NINNV(Abu)NF] (H-LRRFSTMPFAF[Abu]NINNV[Abu]NF-NH2; N-terminus assumed)						99.6%	96%	
CC[C@H](NC(=O)[C@H](C)NC(=O)[C@H](CCSC)NC(=O)[C@H](Cc1ccccc1)NC(=O)[C@@H]1CCCN1C(=O)[C@H](CCSC)NC(=O)[C@@H](NC(=O)[C@H](CO)NC(=O)[C@H](Cc1ccccc1)NC(=O)[C@H](CCCNC(=N)N)NC(=O)[C@H](CCCNC(=N)N)NC(=O)[C@@H](N)CC(C)C)[C@@H](C)O)C(=O)N[C@@H](CC(N)=O)C(=O)N[C@H](C(=O)N[C@@H](CC(N)=O)C(=O)N[C@@H](CC(N)=O)C(=O)N[C@H](C(=O)N[C@@H](CC)C(=O)N[C@@H](CC(N)=O)C(=O)N[C@@H](Cc1ccccc1)C(N)=O)C(C)C)[C@@H](C)CC [SP2017, LRRFSTMPFMA(Abu)NINNV(Abu)NF] (H-LRRFSTMPFMA[Abu]NINNV[Abu]NF-NH2; N-terminus assumed)						100%	95.5%%	
CCCC[C@H](NC(=O)[C@H](Cc1ccccc1)NC(=O)[C@@H]1CCCN1C(=O)[C@H](CCSC)NC(=O)[C@@H](NC(=O)[C@H](CO)NC(=O)[C@H](Cc1ccccc1)NC(=O)[C@H](CCCNC(=N)N)NC(=O)[C@H](CCCNC(=N)N)NC(=O)[C@@H](N)CC(C)C)[C@@H](C)O)C(=O)N[C@@H](Cc1ccccc1)C(=O)N[C@@H](CC)C(=O)N[C@@H](CC(N)=O)C(=O)N[C@H](C(=O)N[C@@H](CC(N)=O)C(=O)N[C@@H](CC(N)=O)C(=O)N[C@H](C(=O)N[C@@H](CC)C(=O)N[C@@H](CC(N)=O)C(=O)N[C@@H](Cc1ccccc1)C(N)=O)C(C)C)[C@@H](C)CC [SP2018, LRRFSTMPF(Nle)F(Abu)NINNV(Abu)NF] (H-LRRFSTMPF[Nle]F[Abu]NINNV[Abu]NF-NH2; N-terminus assumed)						100%	90.9%%	
CC[C@H](NC(=O)[C@H](Cc1ccc(Cl)cc1)NC(=O)[C@H](CCSC)NC(=O)[C@H](Cc1ccccc1)NC(=O)[C@@H]1CCCN1C(=O)[C@H](CCSC)NC(=O)[C@@H](NC(=O)[C@H](CO)NC(=O)[C@H](Cc1ccccc1)NC(=O)[C@H](CCCNC(=N)N)NC(=O)[C@H](CCCNC(=N)N)NC(=O)[C@@H](N)CC(C)C)[C@@H](C)O)C(=O)N[C@@H](CC(N)=O)C(=O)N[C@H](C(=O)N[C@@H](CC(N)=O)C(=O)N[C@@H](CC(N)=O)C(=O)N[C@H](C(=O)N[C@@H](CC)C(=O)N[C@@H](CC(N)=O)C(=O)N[C@@H](Cc1ccccc1)C(N)=O)C(C)C)[C@@H](C)CC [SP2019, LRRFSTMPFM(4-ClPhe)(Abu)NINNV(Abu)NF] (H-LRRFSTMPFM[Phe(4-Cl)][Abu]NINNV[Abu]NF-NH2; N-terminus assumed)						98%	95.9%	
LRRFSTMPFMFGNINNVGNF-NH2 [SP2002]				Complete		87.9%		IC50 [1]: 31.4 µM
